ChEMBL document CHEMBL1909046, “DrugMatrix in vitro pharmacology data”

Legend:
[1] = target: T1, 5-hydroxytryptamine receptor 2C (Homo sapiens, UniProt P28335); test: DRUGMATRIX: Serotonin (5-Hydroxytryptamine) 5-HT2C radioligand binding (ligand: [3H] Mesulergine); type: cell membranes, CHO-K1, Membrane; conditions: cho-k1; Not Active = under 50% inhibition at 10 µM
T1 sequence (P28335 whole entry): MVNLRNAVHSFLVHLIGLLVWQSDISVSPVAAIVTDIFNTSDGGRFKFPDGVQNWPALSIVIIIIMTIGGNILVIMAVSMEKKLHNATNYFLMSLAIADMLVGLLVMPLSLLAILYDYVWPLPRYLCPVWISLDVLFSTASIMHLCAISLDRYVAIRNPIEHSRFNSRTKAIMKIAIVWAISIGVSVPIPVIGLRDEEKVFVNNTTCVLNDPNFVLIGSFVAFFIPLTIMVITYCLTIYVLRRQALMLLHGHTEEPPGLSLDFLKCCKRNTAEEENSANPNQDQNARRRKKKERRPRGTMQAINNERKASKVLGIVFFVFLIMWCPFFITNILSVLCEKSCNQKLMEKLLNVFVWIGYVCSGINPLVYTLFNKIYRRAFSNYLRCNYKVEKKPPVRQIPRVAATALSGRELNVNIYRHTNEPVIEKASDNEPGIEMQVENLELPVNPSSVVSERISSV

[2] = DRUGMATRIX: Tumor Necrosis Factor (TNF), Non-Selective radioligand binding (ligand: [125I] TNF-alpha); type: cell membranes, Membrane; conditions: u-937; Not Active = under 50% inhibition at 10 µM
[3] = target: Prostaglandin G/H synthase 1 (Homo sapiens, UniProt P23219); test: biochemical; type: tissue-based, Platelet;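 note: inhibition of COX-1 enzyme activity, with arachidonic acid supplied as substrate; in other assays of this panel Not Active means under 50% inhibition at 10 µM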
Chain of Prostaglandin G/H synthase 1 (P23219 whole entry): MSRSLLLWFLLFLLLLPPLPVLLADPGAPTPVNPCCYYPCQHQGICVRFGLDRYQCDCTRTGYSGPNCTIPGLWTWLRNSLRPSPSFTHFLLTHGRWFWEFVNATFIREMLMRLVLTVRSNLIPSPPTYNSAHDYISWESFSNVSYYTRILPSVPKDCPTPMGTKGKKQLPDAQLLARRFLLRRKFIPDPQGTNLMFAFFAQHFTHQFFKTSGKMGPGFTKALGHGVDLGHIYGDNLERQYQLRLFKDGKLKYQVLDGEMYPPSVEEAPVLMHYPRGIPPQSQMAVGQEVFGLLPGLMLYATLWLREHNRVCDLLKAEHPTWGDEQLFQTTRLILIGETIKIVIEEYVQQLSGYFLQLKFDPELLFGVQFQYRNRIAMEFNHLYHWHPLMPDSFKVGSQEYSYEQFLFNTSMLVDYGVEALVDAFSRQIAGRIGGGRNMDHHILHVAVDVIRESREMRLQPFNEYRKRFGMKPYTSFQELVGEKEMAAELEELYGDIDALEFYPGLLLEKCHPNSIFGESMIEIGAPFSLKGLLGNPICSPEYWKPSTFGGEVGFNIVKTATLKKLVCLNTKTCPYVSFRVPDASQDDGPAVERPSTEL

[4] = target: D(3) dopamine receptor (Homo sapiens, UniProt P35462); test: DRUGMATRIX: Dopamine D3 radioligand binding (ligand: [3H] Spiperone); type: cell membranes, CHO, Membrane; conditions: cho
Chain of D(3) dopamine receptor (P35462 whole entry): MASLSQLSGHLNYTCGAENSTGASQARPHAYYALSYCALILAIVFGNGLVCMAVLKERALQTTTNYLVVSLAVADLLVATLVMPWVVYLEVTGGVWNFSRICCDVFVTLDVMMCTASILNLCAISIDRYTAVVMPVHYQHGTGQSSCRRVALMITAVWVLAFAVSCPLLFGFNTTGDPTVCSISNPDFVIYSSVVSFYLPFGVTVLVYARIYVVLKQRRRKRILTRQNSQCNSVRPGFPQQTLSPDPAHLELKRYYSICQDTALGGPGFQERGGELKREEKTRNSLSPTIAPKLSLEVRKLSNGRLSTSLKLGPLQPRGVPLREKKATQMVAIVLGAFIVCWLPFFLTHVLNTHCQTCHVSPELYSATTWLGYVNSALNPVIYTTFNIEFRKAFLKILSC

[5] = target: T2, Receptor-type tyrosine-protein phosphatase C (Homo sapiens, UniProt P08575); set-up: species or system Escherichia coli;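 note: inhibition of CD45 enzyme activity measured using DiFMUP as substrate; in other assays of this panel Not Active means under 50% inhibition at 10 µM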
T2 sequence (P08575 whole entry): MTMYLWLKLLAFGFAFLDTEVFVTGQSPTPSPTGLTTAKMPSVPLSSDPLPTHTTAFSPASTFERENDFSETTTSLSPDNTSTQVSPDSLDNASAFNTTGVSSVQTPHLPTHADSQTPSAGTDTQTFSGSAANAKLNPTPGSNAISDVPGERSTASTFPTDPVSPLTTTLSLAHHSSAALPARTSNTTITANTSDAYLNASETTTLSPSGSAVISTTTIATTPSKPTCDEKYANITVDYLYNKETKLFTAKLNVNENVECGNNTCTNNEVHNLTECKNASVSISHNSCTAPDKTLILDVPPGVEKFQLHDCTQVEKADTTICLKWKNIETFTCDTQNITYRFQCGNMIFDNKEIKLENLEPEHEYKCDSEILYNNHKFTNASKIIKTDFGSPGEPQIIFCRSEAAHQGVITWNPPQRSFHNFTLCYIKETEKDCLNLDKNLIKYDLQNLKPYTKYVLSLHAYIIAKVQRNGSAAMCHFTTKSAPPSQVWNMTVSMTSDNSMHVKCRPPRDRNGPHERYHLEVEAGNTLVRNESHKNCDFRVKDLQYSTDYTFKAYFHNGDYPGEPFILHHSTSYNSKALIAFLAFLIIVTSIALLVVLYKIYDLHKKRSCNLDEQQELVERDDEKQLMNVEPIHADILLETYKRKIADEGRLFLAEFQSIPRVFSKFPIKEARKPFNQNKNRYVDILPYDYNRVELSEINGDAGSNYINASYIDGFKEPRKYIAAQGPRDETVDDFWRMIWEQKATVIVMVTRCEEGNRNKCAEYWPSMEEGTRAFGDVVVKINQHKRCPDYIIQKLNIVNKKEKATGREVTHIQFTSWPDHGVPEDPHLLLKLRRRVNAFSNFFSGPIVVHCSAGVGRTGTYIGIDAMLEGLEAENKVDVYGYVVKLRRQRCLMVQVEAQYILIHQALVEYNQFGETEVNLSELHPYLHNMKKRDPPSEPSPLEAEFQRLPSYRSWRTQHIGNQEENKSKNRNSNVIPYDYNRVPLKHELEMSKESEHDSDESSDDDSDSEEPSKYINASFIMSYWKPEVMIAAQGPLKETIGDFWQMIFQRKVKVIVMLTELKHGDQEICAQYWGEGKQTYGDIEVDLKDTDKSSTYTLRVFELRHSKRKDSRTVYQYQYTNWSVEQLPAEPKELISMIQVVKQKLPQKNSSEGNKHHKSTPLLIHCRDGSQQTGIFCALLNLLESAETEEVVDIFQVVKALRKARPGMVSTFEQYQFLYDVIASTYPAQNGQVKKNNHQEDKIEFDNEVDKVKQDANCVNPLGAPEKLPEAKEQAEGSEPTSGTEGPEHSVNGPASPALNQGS

O=C(O)CO [GLYCOLIC ACID]
Not Active: IC50 [1] | IC50 [2] | Ki [2] | IC50 ([3]; platelet) | IC50 [4] | IC50 [5]

COC(=O)Nc1nc2ccc(Sc3ccccc3)cc2[nH]1 [FENBENDAZOLE]
Not Active: IC50 [1] | IC50 [2] | Ki [2] | IC50 ([3]; platelet) | IC50 [4] | IC50 [5]

CC12CCC(CC1)C(C)(C)O2 [EUCALYPTOL]
Not Active: IC50 [1] | IC50 [2] | Ki [2] | IC50 ([3]; platelet) | IC50 [4] | IC50 [5]

O=C(Nc1ccc(Cl)c(Cl)c1)c1cc(Cl)cc(Cl)c1O [3,3',4',5-TETRACHLOROSALICYLANILIDE]
666 nM: IC50 ([3]; read-out: IC50)
Not Active: IC50 [1] | IC50 [2] | Ki [2] | IC50 [4] | IC50 [5]

Cc1ccnc2c1NC(=O)c1cccnc1N2C1CC1 [NEVIRAPINE]
Not Active: IC50 [1] | IC50 [2] | Ki [2] | IC50 ([3]; platelet) | IC50 [4] | IC50 [5]

O=C1CN(/N=C/c2ccc([N+](=O)[O-])o2)C(=O)N1 [NITROFURANTOIN]
Not Active: IC50 [1] | IC50 [2] | Ki [2] | IC50 ([3]; platelet) | IC50 [4] | IC50 [5]

Nc1nc(F)nc2c1ncn2[C@@H]1O[C@H](CO)[C@@H](O)[C@@H]1O [FLUDARABINE]
Not Active: IC50 [1] | IC50 [2] | Ki [2] | IC50 ([3]; platelet) | IC50 [4] | IC50 [5]

CC[C@H]1OC(=O)[C@H](C)[C@@H](O[C@H]2C[C@@](C)(OC)[C@@H](O)[C@H](C)O2)[C@H](C)[C@@H](O[C@@H]2O[C@H](C)C[C@H](N(C)C)[C@H]2O)[C@](C)(O)C[C@@H](C)C(=O)[C@H](C)[C@@H](O)[C@]1(C)O [ERYTHROMYCIN]
Not Active: IC50 [1] | IC50 [2] | Ki [2] | IC50 ([3]; platelet) | IC50 [4] | IC50 [5]

CCC1(c2ccccc2)C(=O)NC(=O)NC1=O [PHENOBARBITAL]
Not Active: IC50 [1] | IC50 [2] | Ki [2] | IC50 ([3]; platelet) | IC50 [4] | IC50 [5]

CCN1C[C@]2(COC)[C@H](O)C[C@H](OC)[C@@]34[C@@H]5C[C@@]6(O)[C@H](OC(=O)c7ccccc7)[C@@H]5[C@@](OC(C)=O)([C@@H]([C@H](OC)[C@H]23)[C@@H]14)[C@@H](O)[C@@H]6OC [ACONITINE]
Not Active: IC50 [1] | IC50 [2] | Ki [2] | IC50 ([3]; platelet) | IC50 [4] | IC50 [5]

CCN1CCN(C(=O)N[C@@H](C(=O)N[C@@H]2C(=O)N3[C@@H]2SC(C)(C)[C@@H]3C(=O)O)c2ccccc2)C(=O)C1=O [PIPERACILLIN]
Not Active: IC50 [1] | IC50 [2] | Ki [2] | IC50 ([3]; platelet) | IC50 [4] | IC50 [5]

O=C(O)c1ccccc1 [BENZOIC ACID]
Not Active: IC50 [1] | IC50 [2] | Ki [2] | IC50 ([3]; platelet) | IC50 [4] | IC50 [5]

CC(C)Cc1ccc([C@H](C)C(=O)O)cc1 [DEXIBUPROFEN]
Not Active: IC50 [1] | IC50 [2] | Ki [2] | IC50 [4] | IC50 [5]
